# Data published in US9175030B2, “Derivatives of avicin D and methods of making and using thereof” (priority 2012, dated 2015).
# pIC50: −log10 of the molar value.
# Tests used:
# A549 = assay: MTT growth inhibition, A549; assay type: cell-based, human; conditions: A549 cells, 72 hrs
# Experimental: (§1) The growth inhibitory effects of avicin D and oxetane derivative were measured using the MTT [3-(4,5-dimethylthiazol-2-yl)-2,5-diphenyl tetrazolium bromide] reduction assay as described in Haridas et al. (2001). Cells were cultured with varying concentrations of avicin D or oxetane in 96-well plates for 72 hrs at 37° C. At the end of 72 hrs, cells were stained with MTT for 2 hrs and then incubated with lysis buffer (20% SDS in 50% N,N-dimethylformamide) for another 6 hrs. Optical density at 570 nm was used as a measure of cell viability.
# (§2) The cell lines 769P, A498, CAKI-1, and CAKI-2 are derived from primary human renal-cell cancers (RCC). A549 is a human lung adenocarcinoma epithelial cell line. B16F10 is a mouse melanoma cell line. BT474, BT 474 M1, BT549, MCF7, […], and ZR751 are breast cancer cell lines. CCRF-CEM, Jurkat, and MOLT4 are leukemia cell lines. HELA is cell line derived from cervical caner. HepG2 is a human hepatocellular liver carcinoma cell line. JeKo-1 is a mantle cell lymphoma (MCL) cell line. LnCAP is a cell line was established from a metastatic lesion of human prostatic adenocarcinoma. MM.1 and RPMI-8226 are human multiple myeloma cell lines. OVCAR3 and SKOV3 are ovarian cancer cell lines. Panc-1 is a pancreatic cancer cell line. PC3 is a prostate cancer cell line. Raji is a Burkitt's lymphoma cell line. RL is a non-Hodgkin's lymphoma cell line. […]
# chemotaxis = assay: Inhibition of chemotaxis; assay type: cell-based; conditions: preliminary data
# MOLT4 = assay: MTT growth inhibition, MOLT4; assay type: cell-based; conditions: MOLT4 cells, 72 hrs
# Experimental: as §1, §2
# HepG2 = assay: MTT growth inhibition, HepG2; assay type: cell-based, human; conditions: HepG2 cells, 72 hrs
# Experimental: as §1, §2
# OVCAR3 = assay: MTT growth inhibition, OVCAR3; assay type: cell-based; conditions: OVCAR3 cells, 72 hrs
# Experimental: as §1, §2
# Jurkat = assay: MTT growth inhibition, Jurkat; assay type: cell-based, human; conditions: Jurkat cells, 72 hrs (Table 5)
# Experimental: as §1, §2
# [1] = tested on: PKA-mediated CREB activity; conditions: cited from earlier work
# MINO = assay: MTT growth inhibition, MINO; assay type: cell-based; conditions: MINO cells, 72 hrs
# Experimental: as §1, §2
# GM0131 = assay: MTT growth inhibition, GM0131; assay type: cell-based; conditions: GM0131 wild type human fibroblast cells, 72 hrs
# Experimental: as §1, §2
# Panc-1 = assay: MTT growth inhibition, Panc-1; assay type: cell-based; conditions: Panc-1 cells, 72 hrs
# Experimental: as §1, §2
# [2] = tested on: p(IL6-κB)350hu.IL6P-Luc in HEK 293T cells; assay: TNF-induced NF-κB luciferase reporter in HEK 293T cells with and without GR (FIG. 3); assay type: cell-based
# From the text: However, TNF-induced activation of p(IL6-κB)350hu.IL6P-Luc was inhibited by both avicin D and Dex in HEK 293T cells transfected with GR (FIG. 3). […] This observation supports the notion that avicins are not able to induce GR transactivation.
# IL-6 = IL-6 expression, constitutive and TNF-induced (FIG. 2B); assay type: cell-based
# U2OS = assay: MTT growth inhibition, U2OS; assay type: cell-based, human; conditions: U2OS cells, 72 hrs
# Experimental: as §1, §2
# SKOV3 = assay: MTT growth inhibition, SKOV3; assay type: cell-based; conditions: SKOV3 cells, 72 hrs
# Experimental: as §1, §2
# NF-κB = assay: Inhibition of NF-κB activation (FIG. 2A); assay type: cell-based; conditions: compared with dexamethasone
# ZR751 = assay: MTT growth inhibition, ZR751; assay type: cell-based; conditions: ZR751 cells, 72 hrs
# Experimental: as §1, §2
# RPMI 8226 = assay: MTT growth inhibition, RPMI 8226; assay type: cell-based, human; conditions: RPMI 8226 cells, 72 hrs
# Experimental: as §1, §2
# Hela = assay: MTT growth inhibition, Hela; assay type: cell-based; conditions: Hela cells, 72 hrs
# Experimental: as §1, §2
# BT474 M1 = assay: MTT growth inhibition, BT474 M1; assay type: cell-based; conditions: BT474 M1 cells, 72 hrs
# Experimental: as §1, §2
# HEK293 = assay: MTT growth inhibition, HEK293; assay type: cell-based, human; conditions: HEK293 cells, 72 hrs
# Experimental: as §1, §2
# MM1 = assay: MTT growth inhibition, MM1; assay type: cell-based, human; conditions: MM1 cells, 72 hrs
# Experimental: as §1, §2
# WSU-DLCL2 = assay: MTT growth inhibition, WSU-DLCL2; assay type: cell-based, human; conditions: WSU-DLCL2 cells, 72 hrs
# Experimental: as §1, §2
# CAKI-2 = assay: MTT growth inhibition, CAKI-2; assay type: cell-based, human; conditions: CAKI-2 cells, 72 hrs
# Experimental: as §1, §2
# MCF7 = assay: MTT growth inhibition, MCF7; assay type: cell-based; conditions: MCF7 cells, 72 hrs
# Experimental: as §1, §2
# [3] = target: glucocorticoid receptor (GR) (Homo sapiens, UniProt P04150); assay: GR Ser-211 phosphorylation (FIG. 4); assay type: cell-based; conditions: up to 16 hours
# Nrf2 = Nrf2 activation, ARE-driven luciferase in Hep G2 cells; assay type: cell-based, human; conditions: Hep G2 cells transfected with hARE-luc, luciferase activity
# Experimental: Activation of Nrf2 was assessed by measuring the antioxidant response element (ARE)-mediated gene expression as described previously by Haridas et al., 2004, which is incorporated herein by reference. Briefly, ARE is a cis-acting regulatory sequence identified in the promoter region of several genes encoding phase 2 detoxification enzymes, that binds to Nrf2. Hep G2 (human hepatocarcinoma) cells were transfected with a human ARE-driven luciferase (luc) containing plasmid, hARE-luc. Following exposure to avicin D/compound 8, the luciferase activity induced in these cells was measured using a dual-luciferase assay kit (Promega) according to the manufacturer's protocol.
# U266 = assay: MTT growth inhibition, U266; assay type: cell-based; conditions: U266 cells, 72 hrs
# Experimental: as §1, §2
# BT474 = assay: MTT growth inhibition, BT474; assay type: cell-based; conditions: BT474 cells, 72 hrs
# Experimental: as §1, §2
# A498 = assay: MTT growth inhibition, A498; assay type: cell-based, human; conditions: A498 cells, 72 hrs
# Experimental: as §1, §2
# human preadipocytes = conditions: cited from earlier work
# Chain of glucocorticoid receptor (GR) (P04150 whole entry): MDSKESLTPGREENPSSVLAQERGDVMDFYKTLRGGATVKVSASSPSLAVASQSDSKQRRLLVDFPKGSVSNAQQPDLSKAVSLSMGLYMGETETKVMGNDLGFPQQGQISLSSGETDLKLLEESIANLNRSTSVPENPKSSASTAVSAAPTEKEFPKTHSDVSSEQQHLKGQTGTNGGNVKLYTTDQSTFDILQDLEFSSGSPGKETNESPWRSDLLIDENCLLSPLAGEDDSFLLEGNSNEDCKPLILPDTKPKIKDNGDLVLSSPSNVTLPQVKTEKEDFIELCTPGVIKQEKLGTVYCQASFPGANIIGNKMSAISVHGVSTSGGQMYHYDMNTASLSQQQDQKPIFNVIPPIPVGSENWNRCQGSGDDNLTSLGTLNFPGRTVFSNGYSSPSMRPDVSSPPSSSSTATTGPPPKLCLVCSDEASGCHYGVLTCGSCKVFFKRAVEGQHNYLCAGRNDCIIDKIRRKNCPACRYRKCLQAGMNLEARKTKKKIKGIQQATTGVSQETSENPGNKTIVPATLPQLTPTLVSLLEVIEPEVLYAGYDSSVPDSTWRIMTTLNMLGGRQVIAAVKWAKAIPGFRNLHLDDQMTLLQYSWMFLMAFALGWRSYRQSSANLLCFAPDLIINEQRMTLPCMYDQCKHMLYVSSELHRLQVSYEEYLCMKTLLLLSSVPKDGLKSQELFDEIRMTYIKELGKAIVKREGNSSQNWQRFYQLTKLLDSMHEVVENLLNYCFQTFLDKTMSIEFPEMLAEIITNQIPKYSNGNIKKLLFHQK
smiles,measurement,setting,value
C=C[C@](C)(O)CC/C=C(\CO)C(=O)O[C@H]1[C@H](O)[C@@H](O)[C@H](O[C@@](C)(C=C)CC/C=C(\CO)C(=O)O[C@H]2C[C@]3(C(=O)O[C@@H]4O[C@H](CO)[C@@H](O)[C@H](O)[C@H]4O[C@@H]4O[C@@H](C)[C@H](O[C@@H]5O[C@@H](CO)[C@H](O)[C@H]5O)[C@@H](O[C@@H]5O[C@H](CO)[C@@H](O)[C@H](O)[C@H]5O)[C@H]4O)[C@H](O)C[C@]4(C)C(=CC[C@@H]5[C@@]6(C)CC[C@H](O[C@@H]7O[C@H](CO[C@@H]8O[C@H](C)[C@H](O)[C@H](O)[C@H]8O[C@@H]8OC[C@@H](O)[C@H](O)[C@H]8O)[C@@H](O)[C@H](O)[C@H]7NC(C)=O)C(C)(C)[C@@H]6CC[C@]54C)[C@@H]3CC2(C)C)O[C@@H]1C [Avicin D],pIC50,A549,5.16
same,inhibition of chemotaxis,chemotaxis,effective at inhibiting chemotaxis at picomolar and nanomolar concentrations
same,pIC50,MOLT4,6.49
same,pIC50,HepG2,6.36
same,pIC50,OVCAR3,5.89
same,pIC50,Jurkat,6.77
same,PKA-mediated CREB activity,[1],inhibited PKA-mediated CREB activity
same,pIC50,MINO,6.38
same,pIC50,GM0131,4.52
same,pIC50,Panc-1,6.28
same,TNF-induced activation of p(IL6-κB)350hu.IL6P-Luc,[2]; HEK 293T cells transfected with GR,inhibited
same,luciferase activity,[2]; wild type HEK 293T cells (no GR),neither avicin D nor dexamethasone had an effect
same,expression of IL-6,IL-6,suppresses the expression of both constituitive and TNF-induced IL-6
same,pIC50,U2OS,5.36
same,pIC50,SKOV3,6.00
same,activation of NF-κB,NF-κB,inhibits activation of NF-κB
same,pIC50,ZR751,6.17
same,pIC50,RPMI 8226,6.52
same,pIC50,Hela,4.88
same,pIC50,BT474 M1,5.96
same,pIC50,HEK293,5.19
same,pIC50,MM1,7.00
same,pIC50,WSU-DLCL2,6.28
same,pIC50,CAKI-2,5.69
same,pIC50,MCF7,4.82
same,phosphorylation of Ser-211,[3],does not enhance phosphorylation of Ser-211 even after 16 hours
same,Fold Nrf2 activation,Nrf2,2.10
same,pIC50,U266,6.52
same,pIC50,BT474,5.55
same,pIC50,A498,6.36
same,differentiation of preadipocytes to mature adipocytes,human preadipocytes,inhibited the differentiation of human preadipocytes to mature adipocytes
same,intracellular triglyceride levels,human preadipocytes,reduced intracellular triglyceride levels
